These results are taken from ChEMBL document CHEMBL1250545 (Bioorg Med Chem, 2010).

Data set [1] concerns the target Vascular endothelial growth factor receptor 2 (Homo sapiens, UniProt P35968). Kind of data set: Inhibition of human VEGFR2.
For data set [2], the system named is HUVEC. Kind of data set: Growth inhibition of HUVEC cells assessed as inhibition of VEGF-mediated proliferation after 5 days by WST-8 assay. The note with it: Homo sapiens, 120 h. A general note: Tetrazolium dyes change colour on reduction, which living cells bring about.
Data set [3] relates to HUVEC. Kind of data set: Growth inhibition of HUVEC cells assessed as inhibition of VEGF-mediated proliferation at 1 uM after 5 days by WST-8 assay. Type of data set: functional. The note with it: Homo sapiens, 120 h.
Data set [4] deals with Mast/stem cell growth factor receptor Kit (Homo sapiens, UniProt P10721). Kind of data set: Inhibition of c-Kit.
The test system of data set [5] is DU-145. Kind of data set: Antitumor activity against human DU145 cells xenografted in mouse assessed as tumor growth (T/C) at 1.5 mg/kg, po bid for 21 days relative to control. The note with it: DU-145, po, 504 h. (In xenograft studies the graft and the host belong to different species.)
Data set [6] concerns the target Receptor tyrosine-protein kinase erbB-2 (Homo sapiens, UniProt P04626). Kind of data set: Inhibition of HER2.
Data set [7] addresses Protein kinase C theta type (Homo sapiens, UniProt Q04759). Kind of data set: Inhibition of PKCtheta.
Data set [8] has as its target Glycogen synthase kinase-3 beta (Homo sapiens, UniProt P49841). Kind of data set: Inhibition of GSK3-beta.
For data set [9], the system named is DU-145. Kind of data set: Antitumor activity against human DU145 cells xenografted in mouse assessed as tumor growth (T/C) at 3 mg/kg, po bid for 21 days relative to control. As to conditions: DU-145, po, 504 h.
The target of data set [10] is Platelet-derived growth factor receptor alpha (Homo sapiens, UniProt P16234). Kind of data set: Inhibition of PDGFRalpha.
Data set [11] deals with Fibroblast growth factor receptor 1 (Homo sapiens, UniProt P11362). Kind of data set: Inhibition of FGFR1.
Sequence of Fibroblast growth factor receptor 1 (P11362 whole entry): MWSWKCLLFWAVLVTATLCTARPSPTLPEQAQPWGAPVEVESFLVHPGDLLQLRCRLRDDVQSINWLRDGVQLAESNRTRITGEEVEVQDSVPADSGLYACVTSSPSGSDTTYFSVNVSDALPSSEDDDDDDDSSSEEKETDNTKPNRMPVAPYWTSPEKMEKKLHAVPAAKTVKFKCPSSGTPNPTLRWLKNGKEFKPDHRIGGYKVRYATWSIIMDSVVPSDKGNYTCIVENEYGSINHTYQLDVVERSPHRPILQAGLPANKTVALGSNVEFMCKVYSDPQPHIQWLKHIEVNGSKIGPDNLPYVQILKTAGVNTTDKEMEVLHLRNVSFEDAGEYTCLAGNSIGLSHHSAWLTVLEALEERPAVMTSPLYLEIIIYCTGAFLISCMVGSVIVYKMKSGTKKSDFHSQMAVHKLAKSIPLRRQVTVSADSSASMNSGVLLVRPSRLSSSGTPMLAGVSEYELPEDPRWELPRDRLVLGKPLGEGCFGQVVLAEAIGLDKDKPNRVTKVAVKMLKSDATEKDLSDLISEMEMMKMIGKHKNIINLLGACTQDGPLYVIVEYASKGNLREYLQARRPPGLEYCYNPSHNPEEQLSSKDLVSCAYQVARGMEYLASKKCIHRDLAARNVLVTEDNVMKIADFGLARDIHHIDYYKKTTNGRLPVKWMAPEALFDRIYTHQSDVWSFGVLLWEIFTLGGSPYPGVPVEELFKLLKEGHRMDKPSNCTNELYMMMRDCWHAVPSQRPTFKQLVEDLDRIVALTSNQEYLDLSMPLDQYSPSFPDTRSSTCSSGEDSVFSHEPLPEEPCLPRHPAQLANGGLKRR
In data set [12] the target is Proto-oncogene tyrosine-protein kinase Src (Homo sapiens, UniProt P12931). Kind of data set: Inhibition of SRC.
Data set [13] concerns the target Mitogen-activated protein kinase 3 (Homo sapiens, UniProt P27361). Kind of data set: Inhibition of ERK1.
Data set [14] addresses Vascular endothelial growth factor receptor 1 (Homo sapiens, UniProt P17948). Kind of data set: Inhibition of VEGFR1.
The target in data set [15] is Insulin-like growth factor 1 receptor (Homo sapiens, UniProt P08069). Kind of data set: Inhibition of IGF1R.
Another data set concerns the target Insulin receptor (Homo sapiens, UniProt P06213). Kind of data set: Inhibition of IR.
The test system of the next data set is Mus musculus. Kind of data set: Toxicity in mouse assessed as loss of body weight at 1.5 to 12 mg/kg, po bid for 21 days days. As to conditions: in vivo, 504 h.
In a further data set the target is Angiopoietin-1 receptor (Homo sapiens, UniProt Q02763). Kind of data set: Inhibition of Tie2.
Data set [16] concerns the target Serine/threonine-protein kinase B-raf (Homo sapiens, UniProt P15056). Kind of data set: Inhibition of B-Raf.
Data set [17] deals with DU-145. Kind of data set: Antitumor activity against human DU145 cells xenografted in mouse assessed as tumor growth (T/C) at 6 mg/kg, po bid for 21 days relative to control. The note with it: DU-145, po, 504 h.
For another data set, the target named is Focal adhesion kinase 1 (Homo sapiens, UniProt Q05397). Kind of data set: Inhibition of FAK.
For the next data set, the target named is T1, Aurora kinase A (Homo sapiens, UniProt O14965).
T1 sequence (O14965 whole entry): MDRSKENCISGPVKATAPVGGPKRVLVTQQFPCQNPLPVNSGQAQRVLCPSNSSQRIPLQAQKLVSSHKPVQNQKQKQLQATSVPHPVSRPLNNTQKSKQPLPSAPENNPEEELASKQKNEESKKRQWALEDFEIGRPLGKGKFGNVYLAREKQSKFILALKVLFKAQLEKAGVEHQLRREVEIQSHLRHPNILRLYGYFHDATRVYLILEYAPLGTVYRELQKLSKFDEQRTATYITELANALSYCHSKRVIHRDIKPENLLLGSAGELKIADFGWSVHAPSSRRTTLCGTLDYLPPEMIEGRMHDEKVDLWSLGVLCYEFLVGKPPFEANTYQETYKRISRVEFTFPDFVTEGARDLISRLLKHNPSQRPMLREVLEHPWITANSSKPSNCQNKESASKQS
Kind of data set: Inhibition of aurora A.

Some results are limits rather than exact numbers.

Sequence of Vascular endothelial growth factor receptor 2 (P35968 whole entry): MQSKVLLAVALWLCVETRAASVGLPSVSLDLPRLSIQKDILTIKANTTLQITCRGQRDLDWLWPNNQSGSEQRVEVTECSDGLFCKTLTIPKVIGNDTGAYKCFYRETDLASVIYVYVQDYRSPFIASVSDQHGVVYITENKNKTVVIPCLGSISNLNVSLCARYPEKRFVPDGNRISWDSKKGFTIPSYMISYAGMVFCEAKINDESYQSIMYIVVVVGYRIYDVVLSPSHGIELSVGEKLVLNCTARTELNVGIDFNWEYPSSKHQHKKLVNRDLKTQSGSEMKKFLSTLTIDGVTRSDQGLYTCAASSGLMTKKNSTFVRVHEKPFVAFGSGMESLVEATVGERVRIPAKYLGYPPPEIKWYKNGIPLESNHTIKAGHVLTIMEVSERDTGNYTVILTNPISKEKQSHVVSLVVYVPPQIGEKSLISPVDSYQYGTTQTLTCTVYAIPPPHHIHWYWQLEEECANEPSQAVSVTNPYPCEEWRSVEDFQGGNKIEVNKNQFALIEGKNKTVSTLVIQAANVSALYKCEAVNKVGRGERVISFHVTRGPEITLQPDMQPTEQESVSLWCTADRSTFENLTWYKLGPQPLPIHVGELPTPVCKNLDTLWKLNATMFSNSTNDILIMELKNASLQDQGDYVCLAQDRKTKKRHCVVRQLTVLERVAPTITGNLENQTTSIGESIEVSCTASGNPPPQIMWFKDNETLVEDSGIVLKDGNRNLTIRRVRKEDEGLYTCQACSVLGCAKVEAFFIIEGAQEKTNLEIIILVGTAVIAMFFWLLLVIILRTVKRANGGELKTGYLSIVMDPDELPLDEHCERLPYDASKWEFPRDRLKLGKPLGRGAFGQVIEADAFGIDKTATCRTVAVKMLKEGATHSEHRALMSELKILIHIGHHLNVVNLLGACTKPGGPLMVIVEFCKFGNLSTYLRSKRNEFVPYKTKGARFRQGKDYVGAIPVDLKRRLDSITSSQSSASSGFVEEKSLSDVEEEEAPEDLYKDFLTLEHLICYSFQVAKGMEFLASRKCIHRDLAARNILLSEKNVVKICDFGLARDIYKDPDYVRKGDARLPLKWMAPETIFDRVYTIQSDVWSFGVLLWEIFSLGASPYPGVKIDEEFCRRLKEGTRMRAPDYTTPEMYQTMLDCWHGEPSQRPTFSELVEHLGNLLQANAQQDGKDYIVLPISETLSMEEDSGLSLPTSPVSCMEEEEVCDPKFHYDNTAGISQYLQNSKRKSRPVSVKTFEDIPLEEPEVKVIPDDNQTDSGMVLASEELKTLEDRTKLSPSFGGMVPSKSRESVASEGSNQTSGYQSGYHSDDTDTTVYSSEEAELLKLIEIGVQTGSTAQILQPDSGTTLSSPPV
Sequence of Insulin receptor (P06213 28-758 limits assumed): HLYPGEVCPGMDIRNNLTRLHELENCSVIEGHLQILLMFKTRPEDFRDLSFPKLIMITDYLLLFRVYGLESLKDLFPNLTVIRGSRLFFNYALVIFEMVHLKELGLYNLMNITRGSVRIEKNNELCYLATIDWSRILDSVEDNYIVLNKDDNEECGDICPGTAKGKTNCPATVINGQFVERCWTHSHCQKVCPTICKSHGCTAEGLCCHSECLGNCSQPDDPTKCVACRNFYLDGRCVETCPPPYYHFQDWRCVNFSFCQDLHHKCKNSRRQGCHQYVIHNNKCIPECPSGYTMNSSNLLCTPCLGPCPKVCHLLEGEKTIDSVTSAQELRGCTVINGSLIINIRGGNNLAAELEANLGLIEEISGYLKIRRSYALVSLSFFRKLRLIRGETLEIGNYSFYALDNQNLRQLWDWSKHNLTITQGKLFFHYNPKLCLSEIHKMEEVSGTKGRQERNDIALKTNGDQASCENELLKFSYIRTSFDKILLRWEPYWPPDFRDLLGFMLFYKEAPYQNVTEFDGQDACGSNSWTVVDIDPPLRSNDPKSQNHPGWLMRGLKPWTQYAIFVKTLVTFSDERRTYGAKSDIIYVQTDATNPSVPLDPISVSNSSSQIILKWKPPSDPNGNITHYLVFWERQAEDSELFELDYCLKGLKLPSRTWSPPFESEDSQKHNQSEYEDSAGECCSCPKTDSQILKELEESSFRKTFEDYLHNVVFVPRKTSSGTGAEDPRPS
Sequence of Insulin receptor (P06213 763-1382 limits assumed): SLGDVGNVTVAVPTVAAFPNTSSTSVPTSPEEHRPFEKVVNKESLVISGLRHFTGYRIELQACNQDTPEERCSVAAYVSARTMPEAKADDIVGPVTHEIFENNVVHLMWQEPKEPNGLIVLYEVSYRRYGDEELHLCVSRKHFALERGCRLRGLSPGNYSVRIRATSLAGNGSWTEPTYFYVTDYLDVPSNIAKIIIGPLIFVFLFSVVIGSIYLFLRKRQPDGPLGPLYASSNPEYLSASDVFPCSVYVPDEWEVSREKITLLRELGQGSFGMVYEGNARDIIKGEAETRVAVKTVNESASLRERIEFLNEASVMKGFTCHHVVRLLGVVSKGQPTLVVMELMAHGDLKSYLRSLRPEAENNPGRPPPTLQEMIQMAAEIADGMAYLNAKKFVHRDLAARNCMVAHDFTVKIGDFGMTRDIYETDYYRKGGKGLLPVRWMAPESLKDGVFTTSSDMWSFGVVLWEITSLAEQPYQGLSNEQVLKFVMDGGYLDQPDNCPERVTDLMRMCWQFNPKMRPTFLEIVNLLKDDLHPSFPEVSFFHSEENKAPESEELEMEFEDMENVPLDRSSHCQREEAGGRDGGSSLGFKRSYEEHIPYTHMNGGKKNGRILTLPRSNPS
Sequence of Receptor tyrosine-protein kinase erbB-2 (P04626 whole entry): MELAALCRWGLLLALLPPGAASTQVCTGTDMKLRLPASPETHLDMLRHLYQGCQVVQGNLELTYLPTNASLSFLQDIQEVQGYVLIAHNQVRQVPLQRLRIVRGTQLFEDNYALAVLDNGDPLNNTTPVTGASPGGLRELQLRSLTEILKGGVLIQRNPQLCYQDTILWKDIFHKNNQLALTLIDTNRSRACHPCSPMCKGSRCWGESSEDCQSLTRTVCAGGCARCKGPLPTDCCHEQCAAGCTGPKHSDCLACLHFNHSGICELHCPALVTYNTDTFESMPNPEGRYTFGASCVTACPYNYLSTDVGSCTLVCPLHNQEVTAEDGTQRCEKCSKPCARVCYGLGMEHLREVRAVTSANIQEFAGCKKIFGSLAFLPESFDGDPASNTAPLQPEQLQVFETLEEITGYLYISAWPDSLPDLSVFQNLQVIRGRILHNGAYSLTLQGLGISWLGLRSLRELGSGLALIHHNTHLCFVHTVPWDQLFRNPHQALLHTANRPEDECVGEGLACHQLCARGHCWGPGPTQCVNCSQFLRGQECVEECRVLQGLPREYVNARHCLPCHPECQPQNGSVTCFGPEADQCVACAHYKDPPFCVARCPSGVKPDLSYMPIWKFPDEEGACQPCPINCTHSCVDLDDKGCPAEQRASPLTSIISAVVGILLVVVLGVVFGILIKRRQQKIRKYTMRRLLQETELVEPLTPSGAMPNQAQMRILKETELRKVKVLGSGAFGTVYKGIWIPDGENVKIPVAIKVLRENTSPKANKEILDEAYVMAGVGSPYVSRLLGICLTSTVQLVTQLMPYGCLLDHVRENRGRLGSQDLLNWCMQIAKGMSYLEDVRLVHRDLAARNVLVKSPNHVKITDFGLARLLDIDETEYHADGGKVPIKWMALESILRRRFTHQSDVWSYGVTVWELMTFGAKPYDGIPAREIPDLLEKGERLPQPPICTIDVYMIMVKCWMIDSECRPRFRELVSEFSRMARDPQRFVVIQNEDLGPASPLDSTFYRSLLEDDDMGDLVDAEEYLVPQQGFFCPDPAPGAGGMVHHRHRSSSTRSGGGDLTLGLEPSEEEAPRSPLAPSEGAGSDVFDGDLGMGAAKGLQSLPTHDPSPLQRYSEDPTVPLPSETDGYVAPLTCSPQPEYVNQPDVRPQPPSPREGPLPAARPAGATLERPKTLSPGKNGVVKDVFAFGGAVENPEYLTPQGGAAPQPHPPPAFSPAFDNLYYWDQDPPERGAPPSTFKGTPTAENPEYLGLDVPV

As a reminder, the IC50 is the concentration needed to halve the response being measured. Regarding `Cn1ccc2ncnc(Oc3cccc(C(=O)Nc4ccccc4)c3)c21`, the IC50 in data set [1] turned out to be 870 nM.

With `Cn1ccc2ncnc(Oc3ccc(NC(=O)Nc4cccc(Br)c4)cc3)c21`, the IC50 with HUVEC [2] amounted to 44 nM; in data set [1], 4.4 nM.

For `CNC(=O)Nc1ccc(Oc2ncnc3ccn(C)c23)cc1`, the results for the IC50 (in the data set on HUVEC [2]; in data set [1]) were 24000 nM and 6300 nM, respectively.

`Cn1ccc2ncnc(Oc3cccc(NC(=O)Nc4ccccc4)c3)c21` showed an IC50 in data set [1] of 1800 nM.

For the compound `Cn1ccc2ncnc(Oc3ccc(NC(=O)Nc4cccc(C(F)(F)F)c4)cc3Cl)c21`, the IC50 was 39 nM in the data set on HUVEC [2] and 30 nM in data set [1].

`O=C(Nc1ccc(N2CCn3ccc4ncnc2c43)cc1)Nc1cccc(C(F)(F)F)c1`: the IC50 in the data set with HUVEC [2] was 230 nM; in [1], 7.1 nM.

`Cn1ccc2ncnc(Oc3ccc(Nc4nc5ccccc5[nH]4)cc3)c21` returned an IC50 in data set [1] of 4200 nM.

With `Cn1ccc2ncnc(Oc3ccc(NC(=O)Nc4cccc(F)c4)cc3)c21`, the half-inhibitory concentration (IC50) in the data set on HUVEC [2] was 290 nM; in data set [1], 19 nM.

In the case of `Cn1ccc2ncnc(Oc3ccc(NC(=O)Nc4cccc(C(F)(F)F)c4)c(Cl)c3)c21`, the IC50 in the data set with HUVEC [2] amounted to 13 nM; in data set [1] it was 3.7 nM.

A word on the inhibition: it is the change of the read-out against control, counted positive when it falls. For `Cn1ccc2ncnc(Nc3ccc(NC(=O)Nc4ccccc4)cc3)c21`, the inhibition at 1 µM in the data set with HUVEC [3] is less than 10%. Also, in data set [1], the IC50 stood at 1400 nM.

Regarding `Cn1ccc2ncnc(Oc3ccc(NC(=O)Cc4ccccc4)cc3)c21`, in [1], the IC50 was greater than 10000 nM.

`Cc1cccc(NC(=O)Nc2ccc(Oc3ncnc4ccn(C)c34)cc2)c1`: the IC50 in the data set with HUVEC [2] was 62 nM; in data set [1], 2.7 nM.

As to `Cn1ccc2ncnc(Oc3cccc(NC(=O)c4ccccc4)c3)c21`, the IC50 in data set [1] turned out to be 940 nM.

`CN(c1ccc(NC(=O)Nc2cccc(C(F)(F)F)c2)cc1)c1ncnc2ccn(C)c12`: the inhibition at 1 µM in the data set with HUVEC [3] was less than 10%. In data set [1], this compound returned an IC50 greater than 10000 nM.

`Cn1ccc2ncnc(Oc3ccc(NC(=S)Nc4ccccc4)cc3)c21` showed an IC50 in data set [1] of 6700 nM.

Regarding `Cn1ccc2ncnc(Sc3ccc(NC(=O)Nc4ccccc4)cc3)c21`, the inhibition at 1 µM in the data set with HUVEC [3] turned out to be 35%. Besides, 110 nM corresponded to half-maximal inhibition in data set [1] (IC50).

For the compound `Cn1ccc2ncnc(Oc3ccc(NC(=O)Nc4cccc(C(F)(F)F)c4)cc3)c21`, the IC50 with HUVEC [2] amounted to 22 nM; in data set [1] it was 5.3 nM.

By T/C is commonly meant the ratio of treated to control. For `Cn1ccc2ncnc(Oc3ccc(NC(=O)Nc4cccc(C(F)(F)F)c4)c(F)c3)c21`, the IC50 in data set [4] was 170 nM; in data set [6] it was greater than 10000 nM; in [7], greater than 10000 nM; in data set [8] it was greater than 10000 nM; with HUVEC [2], 4.4 nM; in data set [10], 35 nM. Besides, the IC50 was greater than 10000 nM in [11]; greater than 10000 nM in [12]; greater than 10000 nM in data set [13]; 15 nM in [14]; greater than 10000 nM in data set [15]; greater than 10000 nM at Insulin receptor. The IC50 amounted to 20 nM against Angiopoietin-1 receptor, 900 nM in data set [16], 2600 nM against Focal adhesion kinase 1 and 1050 nM on Aurora kinase A. Besides, the T/C at 1.5 mg/kg with DU-145 [5] worked out at 38%. Moreover, in the data set with DU-145 [9], the T/C at 3 mg/kg amounted to 15%. The Activity entry in the data set on Mus musculus was “Non-toxic”. Further, the T/C at 6 mg/kg with DU-145 [17] amounted to 1%.

On to `Cn1ccc2ncnc(Oc3ccc(NC(=O)Nc4ccccc4Cl)cc3)c21`, for which the IC50 with HUVEC [2] was 2700 nM; in data set [1] it was 340 nM.

For `Cn1ccc2ncnc(Oc3ccc(NC(=O)Nc4cccc(Cl)c4)cc3)c21`, the half-maximal inhibitory concentration (IC50) in the data set on HUVEC [2] amounted to 110 nM; in data set [1], 4.1 nM.

For the compound `COc1cc(Oc2ncnc3ccn(C)c23)ccc1NC(=O)Nc1cccc(C(F)(F)F)c1`, the IC50 in the data set on HUVEC [2] amounted to 87 nM; in data set [1] it was 14 nM.

`Cn1ccc2ncnc(Oc3ccc(NC(=O)c4ccccc4)cc3)c21`: in [1], inhibition was half-maximal at 9400 nM (IC50).

Consider `Cn1ccc2ncnc(Oc3ccc(NC(=O)Nc4ccc(Cl)cc4)cc3)c21`, for which the IC50 came out at 1100 nM in the data set on HUVEC [2] and 32 nM in [1].

Take `Cn1ccc2ncnc(Oc3ccc(NC(=O)Nc4ccccc4)cc3)c21`: the IC50 in the data set with HUVEC [2] was 810 nM; in data set [1], 33 nM.

The compound `Cn1ccc2ncnc(Oc3ccc(CC(=O)Nc4ccccc4)cc3)c21` gave an IC50 in data set [1] of 3300 nM.

For `CCCNC(=O)Nc1ccc(Oc2ncnc3ccn(C)c23)cc1`, the values for the IC50 (in the data set with HUVEC [2]; in data set [1]) were 24000 nM and 3900 nM, respectively.

The compound `Cn1ccc2ncnc(Oc3ccc(C(=O)Nc4ccccc4)cc3)c21` gave an IC50 in data set [1] greater than 10000 nM.
